Source: publication PMC8399901, “Effects of a Peripherally Restricted Hybrid Inhibitor of CB1 Receptors and iNOS on Alcohol Drinking Behavior and Alcohol-Induced Endotoxemia” (Molecules, 2021)

Tests used:
[1] = molecular target: T1, CB1R (Mus musculus, UniProt P47746); experiment: Two-bottle free-choice alcohol preference test (15% ethanol); assay type: in vivo; conditions: for alcohol preference and intake: daily oral gavage days 6–10 (S-MRI-1867 3, 10 mg/kg; R-MRI-1867 10 mg/kg), male C57BL/6J mice
T1 construct: from tissue; host or cells: living C57BL/6J mice (whole animal; brain and peripheral tissues)
Protocol: The procedure was performed as described, with modifications. Animals were individually housed and acclimated to the paradigm for 5–7 days by having access to two identical water bottles and handled daily to minimize the stress associated with drug testing. Animals were first subjected to a gradual increase in ethanol concentration in a drinking bottle (3%, 6%, 9%, 12%, 15%), while the other bottle contained water. The position of the bottles was changed every day, and alcohol and water bottles were replaced every 4 days. Once alcohol concentration reached 15%, animals remained on the paradigm for 10 days. Starting on day 2, mice received vehicle by oral gavage for 4 days, followed by a daily treatment with the global or peripheral CB1 antagonist (S-MRI-1867 1, 3, 10 mg/kg; R-MRI-1867 10 mg/kg,) or vehicle (control group) for another 5 days, one hour before the dark period. All animals were sacrificed for blood and tissue collection 12–16 h after treatment.

[2] = test system: CB1R; conditions: cited from earlier work
[3] = molecular target: T1, CB1R; experiment: Drinking-in-the-dark voluntary ethanol intake (20% ethanol, 4 h); assay type: in vivo; conditions: for alcohol drinking after oral gavage: wild-type/C57BL/6J mice, oral gavage day 4 (rimonabant 10 mg/kg; JD5037 3 mg/kg; S-MRI-1867 3, 10 mg/kg; R-MRI-1867 10 mg/kg)
Protocol: (§1) Drugs were applied in a volume of 1 μL over the course of 2 min via 33 g internal injector (P1 Technologies, Roanoke, VA, USA) connected with the 2 µL precision glass Hamilton syringe (USA) by a PE-20 tubing (Fisher Scientific, Hampton, NH, USA). The infusion rate and volume were controlled through the use of the syringe pump (model PHD 22/2000, Harvard Apparatus, Cambridge, MA, USA). Following 2 min infusion, injectors were left in place for additional 3 min to allow a passive diffusion of drugs into the tissue.
The procedure was performed as described, with modifications. Mice were individually housed and acclimated to the room for 5–7 days before testing and randomly assigned to treatment groups. Starting 3 h into the dark cycle, water bottles were replaced with 20% ethanol in 25 × 100 mm glass tubes fitted with metal sippers, Access to the ethanol solution was limited to 4 h every day. […] Immediately after the drinking session, mice were deeply anesthetized with isoflurane. Blood was collected by traumatic avulsion of the orbital globe and kept for 10 min at room temperature in Eppendorf tubes followed by centrifugation at 3000× g for 10 min at 4 °C. Serum was collected and kept frozen in sealed vials at −80 °C until analysis.

[4] = molecular target: T2, iNOS (Mus musculus, UniProt P29477); experiment: Serum endotoxin in portal vein after acute ethanol intoxication; assay type: in vivo; conditions: 10 mg/kg oral gavage 30 min before 6 g/kg ethanol intragastric
T2 construct: from tissue; host or cells: living C57BL/6J mice (whole animal)
Protocol: The acute intoxication was performed on 8-week-old C57BL/6J mice as developed by, with modifications. […] The animals were fasted overnight. On the day of the experiment, they were transferred to the procedure room and allowed to acclimate to the new environment for 2 h while remaining in their home cages. Animals were divided into six treatment groups. Each mouse received S-MRI-1867 10 mg/kg or R-MRI-1867 10 mg/kg or vehicle by oral gavage, followed 6 g/kg ethanol (30% w/v) or saline by the same administration route 30 min later. Mice were anaesthetized by isoflurane 90 min later and sacrificed for blood withdrawal and tissue collection. To determine endotoxin levels, blood was drawn aseptically from the portal vein without anticoagulant and clotted for 30 min at room temperature. Samples were then centrifuged at 2000× g for 15 min at room temperature. Serum was pipetted off aseptically into new sterile vials and kept frozen at −80 °C until analysis. For the collection of tissue specimens, the entire alimentary tract was removed and cleaned from the mesentery from mice treated with S-MRI-1867 and saline. Stomach and ~5 cm segments of duodenum, jejunum, ileum, and colon were dissected out, flushed three times with 20 mL ice-cold PBS, and kept in −80 °C freezer till analysis.
Serum samples were thawed and diluted 1:5 with sterile water. […]

[5] = molecular target: T1, CB1R; experiment: Elevated plus maze test of anxiety-related behavior; assay type: in vivo; conditions: 1 µg i.c.v., tested 1 h later
Protocol: as §1
Anxiety-related behavior was assessed using the elevated plus maze (EPM) test as described, with modifications. C57BL/6J mice were allowed to acclimate in their home cages for 2 h prior to the procedure. Animals received i.c.v infusion of JD5037 1 µg or vehicle and were tested in the EPM one hour later.
Mice were given 5 min to explore an elevated platform (72 cm above the floor) consisting of two opposing open and closed arms (each 30 × 5 cm) crossing each other. Illumination in the open and closed arms was 20 and 90 Lux, respectively. Mice were placed individually in the center of the platform (5 × 5 cm) facing an open arm. The behavior of each mouse was monitored by a computer-assisted video tracking system EthoVision XT (Noldus, Leesburg, VA, USA). The tested categories include total distance (cm) and average velocity (cm/s) of the run in the entire maze, cumulative duration (% of total time) spent in closed and open arms, number of entries into each closed and open arm of the maze (in-zone frequency). Arm entries were defined as crossing of the center point (located at approximately two thirds of the mouse body) into the arm. Number of entries, time spent in the open or closed arms, and distance travelled were measured by an automated HindSight software system (Hindsight, version 1.4, Hindsight Software Solutions Inc., Frisco, TX, USA).

[6] = molecular target: T1, CB1R; set-up: method as in PMID 31105045; conditions: cited from earlier work
[7] = molecular target: T1, CB1R; experiment: CP 55,940-induced catalepsy (bar test) in mice; assay type: in vivo; conditions: CP55,940 0.1–3 mg/kg i.p.
Protocol: as §1
(§2) Catalepsy was assessed using the bar test described with modifications. Mice were removed from home cages and their forepaws were placed on a horizontal stainless-steel rod, 0.5 cm in diameter, positioned 3.5 cm above the bench surface. […] The arbitrary cutoff time for cataleptic mice was 60 s. Hypothermia was then evaluated by measuring core body temperature with a rectal probe (Ellab Inc., Denver, CO, USA).
(§3) To determine a working range of CP 55,940 doses that induce catalepsy and hypothermia through CB1R, a dose–response curve for CP 55,940 was constructed first. Pharmacologically naïve Cnr1^−/− and wild-type littermates were injected with increasing doses of CP 55,940 (0.1, 0.3, 1, and 3 mg/kg; i.p.) at 30 min intervals. Hypothermia and catalepsy tests were performed every 30 min before ordering the next dose of CP 55,940.

[8] = molecular target: T1, CB1R; experiment: CP 55,940-induced hypothermia in mice; assay type: in vivo; conditions: CP55,940 0.1–3 mg/kg i.p.
Protocol: as §1, §2, §3

[9] = CB1R-deficient (Cnr1−/−) mice, apart from the highest dose (3 mg/kg)
[10] = wild-type mice, cumulative at 30 min intervals

T1 sequence (P47746 whole entry): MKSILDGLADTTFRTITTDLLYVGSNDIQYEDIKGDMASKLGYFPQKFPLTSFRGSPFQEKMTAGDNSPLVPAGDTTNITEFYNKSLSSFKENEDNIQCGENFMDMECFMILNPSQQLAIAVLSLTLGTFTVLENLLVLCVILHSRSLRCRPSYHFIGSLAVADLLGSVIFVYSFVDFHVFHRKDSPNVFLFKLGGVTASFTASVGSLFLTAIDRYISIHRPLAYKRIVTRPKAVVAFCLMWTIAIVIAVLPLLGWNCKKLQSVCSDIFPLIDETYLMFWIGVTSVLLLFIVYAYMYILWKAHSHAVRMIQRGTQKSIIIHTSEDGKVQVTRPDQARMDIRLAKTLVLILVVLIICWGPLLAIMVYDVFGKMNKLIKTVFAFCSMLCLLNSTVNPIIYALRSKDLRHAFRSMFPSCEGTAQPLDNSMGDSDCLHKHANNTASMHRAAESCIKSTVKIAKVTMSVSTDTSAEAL

## C/C(N)=N/C(=N\S(=O)(=O)c1ccc(C(F)(F)F)cc1)N1C[C@@H](c2ccccc2)C(c2ccc(Cl)cc2)=N1 [R-MRI-1867]
[1]
  alcohol preference and intake: remained unaffected
[2]
  CB1R activity: CB1R inactive
[3]
  alcohol drinking after oral gavage: unaffected
[4]
  alcohol-induced increase in plasma levels of LPS (portal serum endotoxin): similarly inhibited

## CC(C)[C@H](N=C(NS(=O)(=O)c1ccc(Cl)cc1)N1C[C@H](c2ccccc2)C(c2ccc(Cl)cc2)=N1)C(N)=O [JD5037]
[5]; 5 min run, n = 6, mean ± s.e.m., vehicle 4.0 ± 0.4
  velocity in elevated plus maze: 2.4 ± 0.4 cm/s
[5]; 5 min run, n = 6, mean ± s.e.m., vehicle 1189.0 ± 111.6
  total distance traveled in elevated plus maze: 740.5 ± 130.6 cm
[5]; vs vehicle
  movement between the two closed arms (frequency): moved less frequently between the two closed arms
  open arm entries and exploration: failure to enter open arms
  time spent in closed arms: stayed much longer in the closed arms
[3]; i.c.v. on day 4, one hour before dark period (rimonabant 2 µg; JD5037 1 µg)
  alcohol drinking after i.c.v. infusion: ineffective in reducing alcohol drinking
[3]
  alcohol drinking after oral gavage: effectively reduced alcohol drinking
[6]
  effect on alcohol drinking in CB1R-deficient mice: did not occur in CB1R-deficient mice

## CCCCCCC(C)(C)c1ccc([C@@H]2C[C@H](O)CC[C@H]2CCCO)c(O)c1 [CP55,940]
[7]; [9]
  cataleptic behavior: completely insensitive to treatment
[7]; [10]
  cataleptic behavior: cataleptic behavior
[8]; [9]
  decrease in body temperature (hypothermia): completely insensitive to treatment
[8]; [10]
  decrease in body temperature (hypothermia): dose-dependent decrease in body temperature

## CC(N)=NC(=NS(=O)(=O)c1ccc(C(F)(F)F)cc1)N1C[C@H](c2ccccc2)C(c2ccc(Cl)cc2)=N1 [S-MRI-1867]
[1]
  alcohol preference and intake: effective in reducing alcohol preference and intake
[1]; daily oral gavage days 6–10, S-MRI-1867 3, 10 mg/kg
  total liquid consumption or food intake: without affecting
[2]
  CB1R inhibitory potency: nanomolar
[3]
  alcohol drinking after oral gavage: inhibited alcohol consumption in a dose-dependent fashion
[4]
  alcohol-induced increase in plasma levels of LPS (portal serum endotoxin): similarly inhibited
